In the SangsterLogP compilation:

Experiments:
[1] = method code SF-AS, from DOI: 10.3109/00498258809055142, PMID: 3354228
[2] = method code SF-EIA, from DOI: 10.1016/s0022-2275(20)42614-8, PMID: 2280184; conditions: pH 1.0
[3] = method code SF-RC, from DOI: 10.1016/j.nucmedbio.2013.04.008, PMID: 23731552; conditions: pH 7.4
[4] = not given; remark: listed apart in the source
[5] = method code SF-HPLC, from DOI: 10.1016/0378-5173(91)90409-h; conditions: pH 7.4
[6] = not given; remark: listed apart in the source
[7] = not given; remark: listed apart in the source
[8] = not given; remark: listed apart in the source
[9] = not given; remark: listed apart in the source
[10] = not given; remark: listed apart in the source
[11] = method code SF-AS, from DOI: 10.1081/jlc-120004751
[12] = not given; remark: listed apart in the source
[13] = not given; remark: listed apart in the source
[14] = not given; remark: listed apart in the source
[15] = not given; remark: listed apart in the source
[16] = not given; remark: listed apart in the source
[17] = method code SF-AS, from PMID: 7170648; conditions: pH 7.4
[18] = not given; remark: listed apart in the source
[19] = not given; remark: listed apart in the source
[20] = not given; remark: listed apart in the source
[21] = method code SF-RC, from DOI: 10.1016/j.nucmedbio.2008.04.004, PMID: 18589308; conditions: pH 7.4
[22] = method code SF-RC, from DOI: 10.1002/jlcr.3239, PMID: 25359578; conditions: pH 7.4
[23] = not given; remark: listed apart in the source
[24] = method code SF-AS, from DOI: 10.1016/0014-2999(72)90235-x, PMID: 4113999
[25] = method code SF-LC/MS, from DOI: 10.1002/rcm.3594, PMID: 18543375; conditions: pH 7.4
[26] = method code SF-HPLC, from DOI: 10.1016/j.ejps.2016.07.010, PMID: 27422078; conditions: pH 7.4
[27] = not given; remark: listed apart in the source
[28] = method code SF-AS, from PMID: 7306420; conditions: pH 7.5
[29] = not given; remark: listed apart in the source
[30] = method code SF, from DOI: 10.1016/0014-2999(77)90010-3, PMID: 336381; conditions: pH 9.8
[31] = method code SF-HPLC, from DOI: 10.1016/j.ijpharm.2014.07.033, PMID: 25079434; conditions: pH 7.4
[32] = method code SF, from DOI: 10.1016/s0223-5234(00)80025-2, PMID: 11278041; conditions: pH 7.4
[33] = not given; remark: listed apart in the source
[34] = method code SF-AS, from PMID: 4762845; conditions: pH 1.0
[35] = method code SF-HPLC, from DOI: 10.1016/j.ejps.2006.07.007, PMID: 16997537; conditions: pH 7.4
[36] = method code SF, from Huang, J.; Leng, X. (1993). Interaction of rat hepatocyte and cytochrome P 450 with pyrethroids in vitro. Dong Wu Xue Bao, 39(4)418-423.
[37] = method code SF, from DOI: 10.1021/jm00169a014, PMID: 2362268; conditions: pH 7.4
[38] = from Courrière, P.; Paubel, J.P.; Nivière, P.; Foussard-Blaspin, O. (1978). Structure-activity study in a series of local anesthetic agents. I. Physicochemical properties and molecular orbital study. …
[39] = from Letourneux, Y.; Sparfel, L.; Roussakis, C.; Piessard, S.; LeBaut, G. (1984). Pyrophthalones. VI. Derivatives of (N-alkyldihydro-1,4-pyridinyliden-4-yl)-2-indanedione-1,3. Search for antitumor …; conditions: pH 7.4
[40] = not given; remark: listed apart in the source
[41] = method code SF, from DOI: 10.1016/j.bmcl.2013.12.011, PMID: 24342238

`OCCN1CCN(CCCN2c3ccccc3C=Cc3ccccc32)CC1` gave a logP [1] of 3.

Work on `C[C@H](CCC(=O)O)[C@H]1CC[C@H]2[C@@H]3C[C@H](O)[C@@H]4C[C@H](O)CC[C@]4(C)[C@H]3CC[C@]12C` yielded a logD [2] of 3.08.

`c1cc2ccc3ccc4ccc5ccc6ccc1c1c2c3c4c5c61` gave a logP of 7.64.

`O=C(Nc1cccnn1)N1CCC(=Cc2cccc(Oc3ccc(C(F)(F)F)cn3)c2)CC1` showed a logD [3] of 3.48.

`CCCCCCCCCCCCC(Br)C(=O)OCC1OC(n2cc(C)c(=O)[nH]c2=O)CC1N=[N+]=[N-]` (configuration not stated) showed a logP [4] of 8.14.

For `NC(=O)[C@@H]1CCCN1C(=O)[C@H](Cc1cn(C2OC(=O)c3ccccc32)cn1)NC(=O)[C@@H]1CCC(=O)N1` (some centres not stated), the logD [5] was -1.25.

`c1cncc(-c2cnn3cc(-c4ccc(OCCN5CCCCC5)cc4)cnc23)c1` showed a logP [6] of 3.4.

Work on `CCCN(CCCCN1C(=O)CC2(CCCC2)CC1=O)C1COc2cccc(OC)c2C1` (configuration not stated) yielded a logP [7] of 4.8.

`CC(=O)N(O)CCCCCNC(=O)CCC(=O)N(O)CCCCCNC(=O)CCC(=O)N(O)CCCCCN` gave a logP [8] of -1.52.

Work on `CC(C)(C)CC(=O)N1CCC(N(c2ccc(C(F)(F)F)cc2)c2cccnc2)CC1` yielded a logP [9] of 4.2.

`C=CCn1nc(-c2sc(NC(=O)C(C)(C)C)nc2C)cc1C(=O)NCc1ccccc1` gave a logP [10] of 4.33.

`Cc1cn(C2CC(N=[N+]=[N-])C(COC(=O)C(=O)NC(Cc3c[nH]c4ccccc34)C(=O)O)O2)c(=O)[nH]c1=O` (configuration not stated) showed a logP [11] of 0.67.

`FCCOc1ccc(CN2CCN(Cc3cc4ccccc4o3)CC2)cc1` showed a logP [12] of 3.35.

`CN1CN(c2ccccc2)C2(CCN(CCCC(=O)c3ccc(I)s3)CC2)C1=O` showed a logP [13] of 3.14.

With `CC(C)C(NC(=O)CN1C(=O)C(NC(=O)NCc2cc[n+]([O-])cc2)CC=C1c1ccccc1)C(=O)C(F)(F)F` (configuration not stated) the logP [14] was 1.13.

With `COc1ccc(C=Cc2ccc(C=Cc3ccc(OC)c(C(F)(F)F)c3)c(O)c2)cc1C(F)(F)F` the logP [15] was 7.17.

Work on `COc1cccc([C@H](O)C2CCN(CCc3ccc(F)cc3)CC2)c1OC` yielded a logP [16] of 3.8.

With `CCN(CC)C(=O)N1CCN(Cc2cc(Nc3ccnc4cc(Cl)ccc34)ccc2O)CC1` the logD [17] was 3.95.

Molecule `Cc1cc(C(=O)Nc2ccc(-c3ccccc3S(N)(=O)=O)cc2)n(-c2ccc3onc(N)c3c2)n1` has a logP [18] of 2.1.

Molecule `COc1cc2nc(N3CCN(C(=O)C4COc5ccccc5O4)CC3)nc(N)c2cc1OC` (configuration not stated) has a logP [19] of 3.38.

For `CN1CCc2cc(Cl)c(O)cc2[C@@H](c2ccc(SCc3ccccc3)cc2)C1`, the logP [20] was 3.78.

In the case of `O=C(OC[C@@H]1O[C@H](n2cc(Br)c(=O)[nH]c2=O)[C@H](F)[C@H]1OC(=O)c1ccccc1)c1ccccc1`, the logD [21] is reported as 3.95.

Molecule `O=C(NCCF)Nc1ccc(-c2nc(N3CC4CCC(C3)O4)c3cnn(CC(F)(F)F)c3n2)cc1` has a logD [22] of 1.9.

With `CCCCC(CC)COC(=O)c1ccccc1C(=O)OCC(CC)CCCC` (configuration not stated) the logP [23] was 7.3.

In the case of `OCCN1CCN(CCC=C2c3ccccc3Sc3ccc(Cl)cc32)CC1`, the logP [24] is reported as 3.

In the case of `COc1cc2c(c(OC)c1OC)-c1ccc(OC)c(=O)cc1[C@@H](NC(C)=O)CC2`, the logD [25] is reported as 1.08.

Work on `Cc1cc(=O)c2c(O)cc(O)c(C3CCN(C)CC3OC(=O)c3ccccc3)c2o1` (configuration not stated) yielded a logD [26] of 2.33.

With `COc1cc(C2c3cc4c(cc3C(O)C3COC(=O)C23)OCO4)cc(OC)c1OC` (configuration not stated) the logP [27] was 2.01.

For `CS(=O)(=O)c1ccc2c(c1)N(CCCN1CCC(C(N)=O)CC1)c1ccccc1S2`, the logD [28] was 2.02.

In the case of `CC(=O)O[C@]1(C(C)=O)CC[C@H]2[C@@H]3C[C@H](F)C4=CC(=O)CC[C@]4(C)[C@H]3CC[C@@]21C`, the logP [29] is reported as 3.48.

For `O=c1[nH]c2ccccc2n1C1CCN(C[C@@H](O)[C@@H]2COc3ccccc3O2)CC1` (relative stereo), the logD [30] was 3.43.

Work on `CNC(=O)c1cccc2c(Nc3ccc(NS(C)(=O)=O)cc3OC)c3cccc(C)c3nc12` yielded a logD [31] of 3.26.

`CC(C)Cc1ccc(C(C)C(=O)OCN2C(=O)C(=O)c3ccccc32)cc1` (configuration not stated) showed a logD [32] of 4.23.

`C[C@]12CC[C@H](O)C[C@H]1CC[C@@H]1[C@@H]2CC[C@]2(C)[C@@H](c3ccc(=O)oc3)CC[C@]12O` showed a logP [33] of 3.34.

Work on `O=C(CCOCCOCCOCCOCCC(=O)Nc1c(I)cc(I)c(C(=O)O)c1I)Nc1c(I)cc(I)c(C(=O)O)c1I` yielded a logD [34] of 1.42.

With `CCOC(=O)C1OC(Oc2cc3oc(-c4ccc(O)cc4)cc(=O)c3c(O)c2O)C(O)C(O)C1O` (configuration not stated) the logD [35] was 2.37.

Molecule `CC(C)C(C(=O)OC(C#N)c1cccc(Oc2ccccc2)c1)c1ccc(OC(F)F)cc1` (configuration not stated) has a logP [36] of 5.55.

Work on `CC(=O)Oc1ccc(C(c2ccc(OC(C)=O)cc2)c2ccccn2)cc1` yielded a logD [37] of 2.64.

In the case of `CCN(CC)CCCN(C(=O)Cc1ccccc1)c1c(C)cccc1C`, the logP [38] is reported as 4.94.

In the case of `CC1=CC(=C2C(=O)c3ccccc3C2=O)C=C(C)N1CCCNC(=O)N(CCCl)N=O`, the logD [39] is reported as 2.84.

`COC(=O)CC(O)CC(O)C=Cn1c(C(C)C)nc(-c2ccncc2)c1-c1ccc(F)cc1` (configuration not stated) showed a logP [40] of 0.9.

For `CN(C)Cc1cc(C=CC(=O)C=C(O)C=Cc2ccc(O)c(N(C)C)c2)ccc1O`, the logP [41] was 3.48.
